Where “and” joins values, the source holds several entries; their conditions need not be identical. Equal entries are not always repeated. Numbers after ± are expanded uncertainties.
Conditions: Crystal, Calculated from knudsen effusion weight loss

NNC(=O)c1ccco1 [2-furoic acid hydrazide]
Conditions | vapor or sublimation pressure
309.15 K | 0.0001487 ± 7.5e-06 kPa and 0.0001459 ± 7.3e-06 kPa and 0.0001436 ± 7.2e-06 kPa
311.15 K | 0.0001928 ± 9.7e-06 kPa and 0.0001919 ± 9.6e-06 kPa and 0.0001872 ± 9.4e-06 kPa
313.14 K | 0.0002436 ± 1.2e-05 kPa and 0.0002335 ± 1.2e-05 kPa and 0.0002348 ± 1.2e-05 kPa
315.14 K | 0.0003144 ± 1.6e-05 kPa and 0.0003082 ± 1.6e-05 kPa and 0.0003114 ± 1.6e-05 kPa
317.13 K | 0.0003943 ± 2e-05 kPa and 0.0003803 ± 1.9e-05 kPa and 0.0003744 ± 1.9e-05 kPa
319.15 K | 0.0005068 ± 2.5e-05 kPa and 0.0004916 ± 2.5e-05 kPa and 0.0004795 ± 2.4e-05 kPa
321.14 K | 0.0006091 ± 3e-05 kPa and 0.0006111 ± 3.1e-05 kPa and 0.0005851 ± 2.9e-05 kPa
323.16 K | 0.0007862 ± 3.9e-05 kPa and 0.0007814 ± 3.9e-05 kPa and 0.0007812 ± 3.9e-05 kPa
325.15 K | 0.0009687 ± 4.8e-05 kPa and 0.0009579 ± 4.8e-05 kPa and 0.0009504 ± 4.8e-05 kPa

NNC(=O)c1cccs1 [2-thiophenecarboxylic acid hydrazide]
Conditions | vapor or sublimation pressure
339.13 K | 0.000108 ± 5e-06 kPa and 0.000109 ± 5e-06 kPa
341.18 K | 0.000134 ± 7e-06 kPa and 0.000135 ± 7e-06 kPa
343.2 K | 0.000171 ± 9e-06 kPa and 0.000169 ± 8e-06 kPa and 0.000164 ± 8e-06 kPa
345.13 K | 0.000218 ± 1.1e-05 kPa and 0.000213 ± 1.1e-05 kPa and 0.000219 ± 1.1e-05 kPa
347.18 K | 0.000273 ± 1.4e-05 kPa and 0.000274 ± 1.4e-05 kPa and 0.000262 ± 1.3e-05 kPa
349.19 K | 0.00033 ± 1.7e-05 kPa and 0.00034 ± 1.7e-05 kPa and 0.000323 ± 1.6e-05 kPa
351.13 K | 0.000414 ± 2.1e-05 kPa and 0.000423 ± 2.1e-05 kPa and 0.000404 ± 2e-05 kPa
353.18 K | 0.000519 ± 2.6e-05 kPa and 0.00052 ± 2.6e-05 kPa and 0.000497 ± 2.5e-05 kPa
355.19 K | 0.000637 ± 3.2e-05 kPa and 0.000628 ± 3.1e-05 kPa and 0.000622 ± 3.1e-05 kPa
357.12 K | 0.000786 ± 3.9e-05 kPa and 0.000787 ± 3.9e-05 kPa and 0.000763 ± 3.8e-05 kPa
359.15 K | 0.000977 ± 4.9e-05 kPa and 0.000971 ± 4.9e-05 kPa and 0.000942 ± 4.7e-05 kPa
361.18 K | 0.001194 ± 0.00012 kPa and 0.001173 ± 0.00012 kPa and 0.001154 ± 0.00012 kPa

Source: the NIST ThermoML archive (doi:10.1016/j.jct.2008.06.011)
